Seven compounds from PubChem BioAssay (NCI) can be followed below.

Among the test systems are MALME-3M melanoma; UACC-257 melanoma; NCI/ADR-RES ovarian; UACC-62 melanoma; UO-31 renal; OVCAR-4 ovarian; 786-0 renal; TK-10 renal; SK-MEL-5 melanoma; HT29 colon.
What all share (experiment): NCI-60 cell line screen, 48 h

The structures appear in SMILES notation. Several values for one entry are separate records, joined by “and”; a condition that tells them apart may be missing. Identical values can stand only once.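 Tested at 5 concentrations; 48 h exposure; 96-well plates; endpoints linearly interpolated, else capped at highest concentration. GI50: concentration for 50% inhibition of growth. The concentration for full growth arrest is given as TGI.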 *1 amine or outer side, *2 acyl side, *3 side chain or, on linkers, in order; H or OH if unused. Where a SMILES comes first, the peptide text is derived from it. [ ]: non-standard residue; d: D form. The star is where a group is joined. ξ: configuration not given here. X15 = CCN(CC)c1ccc2cc(N*)c(=O)oc2c1; dIva = CC[C@@](C)(N)C(=O)O; X14 = O=C(OCCN[*:1])[*:2]; Aib = CC(C)(N)C(=O)O; ξP = O=C(O)C1CCCN1; βAla = NCCC(=O)O

Turning to `CCN(CC)c1ccc2cc(NC(=O)OCCNC(=O)CCNC(=O)[C@H](CC(C)C)NC(=O)C(C)(C)NC(=O)C(C)(C)NC(=O)[C@H](CC(C)C)NC(=O)CCNC(=O)C(C)(C)NC(=O)[C@H](CC(C)C)NC(=O)CCNC(=O)[C@@](C)(CC)NC(=O)[C@H](C)NC(=O)CCNC(=O)C(C)(C)NC(=O)[C@H](C)NC(=O)[C@@H]3CCCN3C(=O)[C@@](C)(CC)NC(=O)[C@H](Cc3ccccc3)NC(=O)C3CCCN3C(=O)C(C)(C)NC(=O)C3CCCN3C(=O)C(C)(C)NC(C)=O)c(=O)oc2c1` (stereo partly specified) (Ac-[Aib][ξP][Aib][ξP]F[dIva]PA[Aib][βAla]A[dIva][βAla]L[Aib][βAla]L[Aib][Aib]L[βAla][X14]-X15), the GI50 is 0.0021 µM in the assay on MALME-3M melanoma; 0.00222 µM in the assay on UACC-257 melanoma; 0.176 µM in the assay with NCI/ADR-RES ovarian; 0.00385 µM in the assay on UACC-62 melanoma; 0.0296 µM in the assay with UO-31 renal; 0.00347 µM with OVCAR-4 ovarian. In addition, the GI50 in the assay on 786-0 renal was 0.0102 µM; with TK-10 renal, 0.0142 µM; in the assay on SK-MEL-5 melanoma, 0.00256 µM; with HT29 colon, 0.00366 µM. Moreover, the TGI turned out to be 0.00597 µM with MALME-3M melanoma; 0.0065 µM in the assay with UACC-257 melanoma; 0.378 µM with NCI/ADR-RES ovarian; 0.0189 µM with UACC-62 melanoma; 0.114 µM in the assay on UO-31 renal; 0.0439 µM in the assay on OVCAR-4 ovarian. Also, the TGI in the assay with 786-0 renal is 0.0319 µM; in the assay with TK-10 renal, 0.079 µM; with SK-MEL-5 melanoma it was 0.00666 µM; in the assay on HT29 colon, 0.103 µM.

In the case of `COc1cc2c3c(n(C)c(=O)c2cc1OC)-c1cc2c(cc1/C3=C\C(N)CN)OCO2` (stereo unspecified), the GI50 is 0.284 µM with MALME-3M melanoma; 6.38 µM with UACC-257 melanoma; over 74.8 µM with NCI/ADR-RES ovarian; 0.707 µM with UACC-62 melanoma; 4.44 µM in the assay on UO-31 renal; 5.44 µM with OVCAR-4 ovarian. For the same compound, the GI50 in the assay on 786-0 renal is 1.27 µM; with TK-10 renal, 1.45 µM; with SK-MEL-5 melanoma, 2.8 µM; in the assay on HT29 colon, 2.61 µM. Besides, the TGI with MALME-3M melanoma is 4.04 µM; in the assay on UACC-257 melanoma, 41.4 µM; in the assay on NCI/ADR-RES ovarian, over 100 µM; in the assay on UACC-62 melanoma, 3.66 µM; in the assay on UO-31 renal, over 36.5 µM; in the assay with OVCAR-4 ovarian it was over 100 µM. Also, the TGI in the assay with 786-0 renal was 9.92 µM; with TK-10 renal, 26.5 µM; with SK-MEL-5 melanoma, 8.53 µM; in the assay with HT29 colon, over 100 µM.

Turning to `CCN1C(=O)N(CC)C2C1NN=c1s/c(=C\c3cc4ccccc4[nH]3)c(=O)n12` (stereo unspecified), the GI50 in the assay on MALME-3M melanoma was 0.0388 µM; in the assay with UACC-257 melanoma, 12.2 µM; with NCI/ADR-RES ovarian it was 0.0213 µM; in the assay with UACC-62 melanoma, under 0.0111 µM; with UO-31 renal, 0.0523 µM; in the assay on OVCAR-4 ovarian it was under 0.0162 µM. In addition, the GI50 in the assay with 786-0 renal was 0.0387 µM; in the assay on TK-10 renal it was 2.11 µM; in the assay on SK-MEL-5 melanoma it was 0.0202 µM; in the assay with HT29 colon, under 0.01 µM. The TGI is 36.9 µM in the assay with MALME-3M melanoma; over 100 µM in the assay with UACC-257 melanoma; 2.3 µM in the assay with NCI/ADR-RES ovarian; 7.83 µM in the assay on UACC-62 melanoma; 10.4 µM with UO-31 renal; over 100 µM in the assay with OVCAR-4 ovarian. Also, the TGI with 786-0 renal is 22.3 µM; with TK-10 renal it was 32.3 µM; in the assay with SK-MEL-5 melanoma, 0.063 µM; in the assay with HT29 colon, over 100 µM.

As to `CCCOC(=O)CCn1c(SC)nc2[nH]cc(-c3ccccc3)c2c1=O`, the GI50 with MALME-3M melanoma was 18.5 µM; in the assay on UACC-257 melanoma, 33.8 µM; with NCI/ADR-RES ovarian, 25.4 µM; in the assay on UACC-62 melanoma it was 11.7 µM; in the assay on UO-31 renal, 23.9 µM; with OVCAR-4 ovarian it was 29.2 µM. Also, the GI50 with 786-0 renal was 2.71 µM; in the assay with TK-10 renal it was 47.3 µM; with SK-MEL-5 melanoma it was 15.9 µM; with HT29 colon, 15.5 µM. In addition, the TGI in the assay with MALME-3M melanoma was 51.8 µM; in the assay with UACC-257 melanoma, over 100 µM; with NCI/ADR-RES ovarian it was over 100 µM; in the assay with UACC-62 melanoma, 26.5 µM; in the assay on UO-31 renal, 75.5 µM; in the assay with OVCAR-4 ovarian, 95.8 µM. Also, the TGI was over 100 µM in the assay on 786-0 renal, over 100 µM in the assay with TK-10 renal, 35.1 µM with SK-MEL-5 melanoma and 61.6 µM in the assay with HT29 colon.

For `c1ccc(P(CCP(CCP(c2ccccc2)c2ccccc2)c2ccccc2)CCP(c2ccccc2)c2ccccc2)cc1` (stereo unspecified), the TGI in the assay on MALME-3M melanoma, with UACC-257 melanoma, in the assay with NCI/ADR-RES ovarian, in the assay on UACC-62 melanoma, with UO-31 renal and with OVCAR-4 ovarian was over 10 µM each time. Besides, the TGI is 3.21 µM with 786-0 renal, over 10 µM in the assay on TK-10 renal, over 10 µM in the assay with SK-MEL-5 melanoma and over 10 µM with HT29 colon. Also, in the assay on SK-MEL-5 melanoma, the GI50 was > 10 µM and 4.12 µM.

For the compound `Nc1n[nH]c2cccc(C#Cc3cccc(C(=O)Nc4cc(CN5CCOCC5)cc(C(F)(F)F)c4)c3)c12`, the GI50 in the assay with MALME-3M melanoma was 1.63 µM; with UACC-257 melanoma, 4.63 µM; in the assay with NCI/ADR-RES ovarian it was 4.59 µM; in the assay on UACC-62 melanoma it was 1.99 µM; in the assay on UO-31 renal it was 2.03 µM; in the assay on OVCAR-4 ovarian, 5.8 µM. Moreover, the GI50 in the assay on 786-0 renal is 3.97 µM; in the assay with TK-10 renal it was 11.4 µM; in the assay on SK-MEL-5 melanoma it was 4.34 µM; in the assay on HT29 colon, 3.13 µM. Besides, the TGI came to 9.88 µM in the assay with MALME-3M melanoma; 18.1 µM in the assay on UACC-257 melanoma; 23.3 µM in the assay on NCI/ADR-RES ovarian; 8.34 µM with UACC-62 melanoma; 11.1 µM in the assay on UO-31 renal; 23.1 µM with OVCAR-4 ovarian. Further, the TGI with 786-0 renal came to 15 µM; in the assay on TK-10 renal it was 27.5 µM; in the assay with SK-MEL-5 melanoma it was 16 µM; in the assay on HT29 colon, 16.2 µM.

`CC(C)N1C(NNC(=O)c2cnccn2)=NS(=O)(=O)c2ccccc21`: the GI50 in the assay with MALME-3M melanoma, with UACC-257 melanoma, with NCI/ADR-RES ovarian, with UACC-62 melanoma, with UO-31 renal and with OVCAR-4 ovarian was over 100 µM each time. The GI50 with 786-0 renal, with TK-10 renal, with SK-MEL-5 melanoma and in the assay with HT29 colon was over 100 µM throughout. Further, the TGI in the assay with MALME-3M melanoma, with UACC-257 melanoma, with NCI/ADR-RES ovarian, with UACC-62 melanoma, in the assay with UO-31 renal and in the assay with OVCAR-4 ovarian was over 100 µM each time. The TGI with 786-0 renal, in the assay on TK-10 renal, in the assay with SK-MEL-5 melanoma and in the assay on HT29 colon was over 100 µM each time.
